Measured values from US9353101B2 (Merck Sharp & Dohme Corp., priority 2012, dated 2016).

Target: CETP (Homo sapiens (Human), UniProt P11597)
Assay: In vitro radioactive assay of CETP-catalyzed CE and TG transfer (RTA assay), 95% human serum
Assay type: biochemical
Details: RTA assay in 95% human serum; read-out: RTA IC50 (CETP Inhibition)
Description: In Vitro Radioactive Assays of CETP-Catalyzed CE and TG Transfer (RTA Assay)
Reagents and sources are: [3H] cholesteryl oleate (GE #TRK.886), [3H] Triolein (Perkin-Elmer NET-431), Butylated hydroxyl toluene (Aldrich, #D4740-4), DOPC (Sigma, # P6354), Sodium Bromide (Fisher scientific #S255-500), PEG 8000 (Fisher, #BP233-1), and human HDL (Intracel Corp #RP-036).
An in vitro assay for determining IC50's to identify compounds that inhibit CETP transfer activity is performed based on a modification of a published method (Morton and Zilversmit, (1981) A plasma inhibitor of triglyceride and cholesteryl ester transfer activities, J. Biol. Chem. 256(23), 11992-11995). The ability of inhibitors to alter CETP activity is performed using two different assays: one using recombinant CETP and one using an endogenous plasma source of CETP. Both assays measure the transfer of [3H] cholesteryl oleate or [3H] triolein from exogenous LDL to HDL.
Radiolabeled donor particles are generated by first combining 100 μl of 200 μM butylated hydroxyl toluene in CHCl3, 216 μL of 21.57 mM DOPC in EtOH, and either 500 μCi [3H]-triolein (Perkin Elmer #NET-431) or 500 μCi [3H]-cholesteryl oleate (GE #TRK886) in a glass tube. Reagents are mixed, dried under nitrogen, and then resuspended in 2 mL of 50 mM Tris, 27 μM EDTA at pH 7.4. After a brief vortex, the solution is sonicated until clear and mixed with 20 mL of fresh human serum. The mixture is incubated overnight at 37° C. The [3H] labeled LDL substrate is separated at 1.063 g/ml density by sequential ultracentrifugal flotation in NaBr according to the method by (Havel, Eder et al. 1955; Chapman, Goldstein et al. 1981). Once isolated the particles are dialyzed 3× in CETP buffer (50 mM Tris, pH 7.4, 100 mM NaCl, 1 mM EDTA). Human HDL is purchased from Intracel and used as the acceptor particles.
Transfer assays are performed in a 96 or 384-well v-bottom polypropylene plate. For the RTA using recombinant CETP (2% RTA), an assay cocktail is prepared with the final concentrations 128 μg/mL HDL, 20 nM rCETP, 2% human serum, and 1×CETP buffer. 1 μL of each test compound diluted in DMSO is added to 47 μL of assay cocktail per well and incubated at 37° C. for 1 hour. To initiate the transfer reaction, 2 μL radiolabeled LDL is added. After an additional 60 min of incubation at 37° C., the transfer action is terminated by precipitation of LDL with an equal volume of 20% W/V PEG 8000. The plates are centrifuged at 2000 rpm for 30 minutes at 4° C. A 40 μL aliquot of the HDL-containing supernatant is transferred to a Packard Optiplate™ with 200 μL of MicroScint™ 20. After mixing, plates are counted by liquid scintillation. Counts present in the supernatant for blanks (wells containing only HDL acceptor, CETP buffer and DMSO) are subtracted from those containing test compounds and used to correct for non-specific transfer.
For the transfer assay using endogenous CETP from serum (95% RTA), the same procedure is used except that human serum is added such that a final concentration of serum of 95% of the total assay volume is achieved, yielding a concentration of approximately 15 nM endogenous CETP in the assay. This is then combined with HDL and CETP buffer and the reaction proceeds as above and is terminated as described.
Comparison of the counts of samples with inhibitors to an uninhibited (DMSO only) positive control yield a percent inhibition. A plot of percent inhibition vs. log of inhibitor concentration, fit to a Sigmoidal 4 parameter equation is used to calculate IC50.
Starting materials are commercially available or are made using known procedures or as shown below. The examples may be synthesized using the general schemes provided below. The data reported for the examples below were obtained using the RTA assay in 95% human serum.

CETP, sequence (P11597 18-493 limits assumed): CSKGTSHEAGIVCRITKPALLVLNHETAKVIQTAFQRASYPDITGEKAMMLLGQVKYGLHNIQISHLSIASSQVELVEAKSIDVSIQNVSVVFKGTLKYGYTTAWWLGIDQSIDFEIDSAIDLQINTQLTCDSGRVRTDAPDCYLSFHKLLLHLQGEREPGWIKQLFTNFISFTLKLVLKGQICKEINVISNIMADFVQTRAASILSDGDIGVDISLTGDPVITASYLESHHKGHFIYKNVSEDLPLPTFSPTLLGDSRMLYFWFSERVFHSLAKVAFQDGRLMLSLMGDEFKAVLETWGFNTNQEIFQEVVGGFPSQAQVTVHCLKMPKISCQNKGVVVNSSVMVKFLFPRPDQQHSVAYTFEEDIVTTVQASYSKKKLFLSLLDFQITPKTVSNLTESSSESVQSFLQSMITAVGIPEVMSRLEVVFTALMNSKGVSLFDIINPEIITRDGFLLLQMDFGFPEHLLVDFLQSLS

SMILES | IC50 [µM]
COc1ncc(C(C)(O)C(F)(F)F)cc1-c1cnc(N2CC(F)C2)nc1CN1C(=O)O[C@H](c2cc(C(F)(F)F)cc(C(F)(F)F)c2)[C@@H]1C (mixture of isomers) [Example 16, (4S,5R)-5-[3,5-Bis(trifluoromethyl)phenyl]-3-{[2-(3-fluoroazetidin-1-yl)-5-{2-methoxy-5-[(2RS)-1,1,1-trifluoro-2-hydroxypropan-2-yl]pyridin-3-yl}pyrimidin-4-yl]methyl}-4-methyl-1,3-oxazolidin-2-one] | 0.014
COc1ncc(-c2sc(C)nc2C)cc1-c1cnc(N2CC(F)C2)nc1CN1C(=O)O[C@H](c2cc(C(F)(F)F)cc(C(F)(F)F)c2)[C@@H]1C [Example 3, (4S,5R)-5-[3,5-Bis(trifluoromethyl)phenyl]-3-({5-[5-(2,4-dimethyl-1,3-thiazol-5-yl)-2-methoxypyridin-3-yl]-2-(3-fluoroazetidin-1-yl)pyrimidin-4-yl}methyl)-4-methyl-1,3-oxazolidin-2-one] | 0.003
COc1ncc(-c2c(C)nn(C)c2C)cc1-c1cnc(N2CC(F)C2)nc1CN1C(=O)O[C@H](c2cc(C(F)(F)F)cc(C(F)(F)F)c2)[C@@H]1C [Example 6] | 0.003
COc1ncc(-c2c(C)noc2C)cc1-c1cnc(N2CC(F)C2)nc1CN1C(=O)O[C@H](c2cc(C(F)(F)F)cc(C(F)(F)F)c2)[C@@H]1C [Example 7] | 0.003
COc1ncc(CCC(=O)O)cc1-c1cnc(N2CC(F)C2)nc1CN1C(=O)O[C@H](c2cc(C(F)(F)F)cc(C(F)(F)F)c2)[C@@H]1C [Example 8] | 0.092
COc1ncc(C(F)(F)F)cc1-c1cnc(N2CC(F)C2)nc1CN1C(=O)O[C@H](c2cc(C(F)(F)F)cc(C(F)(F)F)c2)[C@@H]1C [Example 9, (4S,5R)-5-[3,5-Bis(trifluoromethyl)phenyl]-3-({2-(3-fluoroazetidin-1-yl)-5-[2-methoxy-5-(trifluoromethyl)pyridin-3-yl]pyrimidin-4-yl}methyl)-4-methyl-1,3-oxazolidin-2-one] | 0.014
CCOc1ncc(C(F)(F)F)cc1-c1cnc(N2CC(F)C2)nc1CN1C(=O)O[C@H](c2cc(C(F)(F)F)cc(C(F)(F)F)c2)[C@@H]1C [Example 10] | 0.012
COc1ncc(C(C)C)cc1-c1cnc(N2CC(F)C2)nc1CN1C(=O)O[C@H](c2cc(F)cc(F)c2)[C@@H]1C [Example 14, (4S,5R)-5-(3,5-Difluorophenyl)-3-{[2-(3-fluoroazetidin-1-yl)-5-(5-isopropyl-2-methoxypyridin-3-yl)pyrimidin-4-yl]methyl}-4-methyl-1,3-oxazolidin-2-one] | 0.016
COc1ncc(-c2c(C)n[nH]c2C)cc1-c1cnc(N2CC(F)C2)nc1CN1C(=O)O[C@H](c2cc(C(F)(F)F)cc(C(F)(F)F)c2)[C@@H]1C [Example 17, (4S,5R)-5-[3,5-Bis(trifluoromethyl)phenyl]-3-({5-[5-(3,5-dimethyl-1H-pyrazol-4-yl)-2-methoxypyridin-3-yl]-2-(3-fluoroazetidin-1-yl)pyrimidin-4-yl}methyl)-4-methyl-1,3-oxazolidin-2-one] | 0.005
CCCn1nc(C)c(-c2cnc(OC)c(-c3cnc(N4CC(F)C4)nc3CN3C(=O)O[C@H](c4cc(C(F)(F)F)cc(C(F)(F)F)c4)[C@@H]3C)c2)c1C [Example 18, (4S,5R)-5-[3,5-Bis(trifluoromethyl)phenyl]-3-({5-[5-(3,5-dimethyl-1-propyl-1H-pyrazol-4-yl)-2-methoxypyridin-3-yl]-2-(3-fluoroazetidin-1-yl)pyrimidin-4-yl}methyl)-4-methyl-1,3-oxazolidin-2-one] | 0.012
CCn1nc(C)c(-c2cnc(OC)c(-c3cnc(N4CC(F)C4)nc3CN3C(=O)O[C@H](c4cc(C(F)(F)F)cc(C(F)(F)F)c4)[C@@H]3C)c2)c1C [Example 19] | 0.009
COc1ncc(-c2c(C)nn(CC#N)c2C)cc1-c1cnc(N2CC(F)C2)nc1CN1C(=O)O[C@H](c2cc(C(F)(F)F)cc(C(F)(F)F)c2)[C@@H]1C [Example 21] | 0.018
COc1ncc(-c2c(C)nn(CC(N)=O)c2C)cc1-c1cnc(N2CC(F)C2)nc1CN1C(=O)O[C@H](c2cc(C(F)(F)F)cc(C(F)(F)F)c2)[C@@H]1C [Example 22] | 0.022
COc1ncc(-c2c(C)n[nH]c2C)cc1-c1cnc(N2CC(F)(F)C2)nc1CN1C(=O)O[C@H](c2cc(C(F)(F)F)cc(C(F)(F)F)c2)[C@@H]1C [Example 23, (4S,5R)-5-[3,5-Bis(trifluoromethyl)phenyl]-3-({2-(3,3-difluoroazetidin-1-yl)-5-[5-(3,5dimethyl-1H-pyrazol-4-yl)-2-methoxypyridin-3-yl]pyrimidin-4-yl}methyl)-4-methyl-1,3-oxazolidin-2-one] | 0.015
COc1ncc(-c2c(C)n[nH]c2C)cc1-c1cnc(N2CC(O)C2)nc1CN1C(=O)O[C@H](c2cc(C(F)(F)F)cc(C(F)(F)F)c2)[C@@H]1C [Example 24] | 0.332
COc1ncc(-c2c(C)n[nH]c2C)cc1-c1cnc(N2CCCC2)nc1CN1C(=O)O[C@H](c2cc(C(F)(F)F)cc(C(F)(F)F)c2)[C@@H]1C [Example 25] | 0.02
COc1ncc(-c2c(C)n[nH]c2C)cc1-c1cnc(N2CCOCC2)nc1CN1C(=O)O[C@H](c2cc(C(F)(F)F)cc(C(F)(F)F)c2)[C@@H]1C [Example 26] | 0.023
COc1ncc(-c2c(C)n[nH]c2C)cc1-c1cnc(N2CCC2)nc1CN1C(=O)O[C@H](c2cc(C(F)(F)F)cc(C(F)(F)F)c2)[C@@H]1C [Example 27] | 0.019
COc1ncc(C(C)C)cc1-c1cnc(N2CC(F)(F)C2)nc1CN1C(=O)O[C@H](c2cc(C(F)(F)F)cc(C(F)(F)F)c2)[C@@H]1C [Example 28, (4S,5R)-5-[3,5-Bis(trifluoromethyl)phenyl]-3-{[2-(3,3-difluoroazetidin-1-yl)-5-(5-isopropyl-2-methoxypyridin-3-yl)pyrimidin-4-yl]methyl}-4-methyl-1,3-oxazolidin-2-one] | 0.005
COc1ncc(C(C)C)cc1-c1cnc(N2[C@H](C)CC[C@H]2C)nc1CN1C(=O)O[C@H](c2cc(C(F)(F)F)cc(C(F)(F)F)c2)[C@@H]1C [Example 29] | 0.43
COc1ncc(C(C)C)cc1-c1cnc(N2CCC[C@@H]2C)nc1CN1C(=O)O[C@H](c2cc(C(F)(F)F)cc(C(F)(F)F)c2)[C@@H]1C [Example 30] | 0.018
COc1ncc(C(C)C)cc1-c1cnc(N2CCC2)nc1CN1C(=O)O[C@H](c2cc(C(F)(F)F)cc(C(F)(F)F)c2)[C@@H]1C [Example 31] | 0.005
COc1ncc(-c2c(C)cc(C(=O)O)cc2C)cc1-c1cnc(N2CC(F)C2)nc1CN1C(=O)O[C@H](c2cc(C(F)(F)F)cc(C(F)(F)F)c2)[C@@H]1C [Example 32, 4-{5-[4-({(4S,5R)-5-[3,5-Bis(trifluoromethyl)phenyl]-4-methyl-2-oxo-1,3-oxazolidin-3-yl}methyl)-2-(3-fluoroazetidin-1-yl)pyrimidin-5-yl]-6-methoxypyridin-3-yl}-3,5-dimethylbenzoic acid] | 0.007
COc1ncc(-c2c(C)cc(-c3n[nH]c(=O)o3)cc2C)cc1-c1cnc(N2CC(F)C2)nc1CN1C(=O)O[C@H](c2cc(C(F)(F)F)cc(C(F)(F)F)c2)[C@@H]1C [Example 33, 5-(4-{5-[4-({(4S,5R)-5-[3,5-Bis(trifluoromethyl)phenyl]-4-methyl-2-oxo-1,3-oxazolidin-3-yl}methyl)-2-(3-fluoroazetidin-1-yl)pyrimidin-5-yl]-6-methoxypyridin-3-yl}-3,5-dimethylphenyl)-1,3,4-oxadiazol-2(3H)-one] | 0.008
